Molecular target: Mitogen-activated protein kinase kinase kinase kinase 1 (Homo sapiens, UniProt Q92918)
Test: Inhibition of N-terminal GST-tagged full-length human HPK1 expressed in baculovirus infected Sf21 cells using MBP as substrate preincubated for 15 mins followed by substrate addition and measured after 120 mins in presence of ATP by ADP-glo assay

Chain of Mitogen-activated protein kinase kinase kinase kinase 1 (Q92918 whole entry): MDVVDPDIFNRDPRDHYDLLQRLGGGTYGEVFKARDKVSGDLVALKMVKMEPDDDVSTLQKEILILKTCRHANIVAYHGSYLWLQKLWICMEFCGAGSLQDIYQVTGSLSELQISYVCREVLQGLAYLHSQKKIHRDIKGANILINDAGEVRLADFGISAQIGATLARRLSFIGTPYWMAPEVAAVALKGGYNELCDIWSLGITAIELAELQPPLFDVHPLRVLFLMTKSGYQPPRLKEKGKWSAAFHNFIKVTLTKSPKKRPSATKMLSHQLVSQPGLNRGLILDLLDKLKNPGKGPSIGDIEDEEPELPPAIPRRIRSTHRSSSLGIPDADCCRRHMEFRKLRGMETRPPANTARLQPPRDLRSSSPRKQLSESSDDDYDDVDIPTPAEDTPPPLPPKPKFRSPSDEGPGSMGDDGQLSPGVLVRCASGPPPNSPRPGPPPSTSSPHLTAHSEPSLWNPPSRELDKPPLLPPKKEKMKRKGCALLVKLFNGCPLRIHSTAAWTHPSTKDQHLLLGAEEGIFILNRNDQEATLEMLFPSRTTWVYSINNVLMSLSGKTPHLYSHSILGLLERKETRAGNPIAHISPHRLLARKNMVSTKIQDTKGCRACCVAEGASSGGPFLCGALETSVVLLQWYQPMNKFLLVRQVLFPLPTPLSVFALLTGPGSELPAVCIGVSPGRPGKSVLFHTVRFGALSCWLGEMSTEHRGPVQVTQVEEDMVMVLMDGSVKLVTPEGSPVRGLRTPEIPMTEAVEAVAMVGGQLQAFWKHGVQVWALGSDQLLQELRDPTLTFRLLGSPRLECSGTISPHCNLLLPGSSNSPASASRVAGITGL

Row | IC50 | SMILES
1 | < 100 nM | CS(=O)(=O)Cc1ccc(-c2cc(C(N)=O)c3ncnc(N[C@H]4CCCNC4)c3n2)cc1
2 | < 100 nM | NC(=O)c1cc(-c2ccc(F)cc2)nc2c(N[C@H]3CCCNC3)ncnc12

More lines, now with the values behind:

Row | SMILES | IC50
3 | NC(=O)c1cc(-c2ccc(C3(O)CC3)cc2)nc2c(N[C@H]3CCCNC3)ncnc12 | < 100 nM
4 | COCCOc1ccc(-c2cc(C(N)=O)c3ncnc(N[C@H]4CCCNC4)c3n2)c(C#N)c1 | < 100 nM
5 | COc1ccccc1-c1cc(C(N)=O)c2ncnc(N[C@H]3CCCNC3)c2n1 | < 100 nM
6 | CN1CCN(c2ccc(-c3cc(C(N)=O)c4ncnc(N[C@H]5CCCNC5)c4n3)cn2)CC1 | < 100 nM

Reference: ChEMBL document CHEMBL5370691, “Novel Pyrido[3,2-d]pyrimidines as HPK1 Inhibitors for Treating Cancer and Inflammatory and Autoimmune Diseases” (ACS Med Chem Lett, 2023)
